Assay results from ChEMBL document CHEMBL4387741, “Optimization of novel reversible Bruton's tyrosine kinase inhibitors identified using Tethering-fragment-based screens” (Bioorg Med Chem, 2019).

Legend:
[1] = molecular target: Activin receptor type-1 (Homo sapiens) (UniProt Q04771); assay: Inhibition of wild-type human ACVR1 (C188 to C509 residues) expressed in bacterial expression system at 1 uM by Kinomescan method relative to control
[2] = system: Serine/threonine-protein kinase B-raf (Homo sapiens), P15056 [V600E]; assay: Inhibition of human partial length BRAF V600E mutant (S429 to E741 residues) expressed in mammalian expression system at 1 uM by Kinomescan method relative to control
[3] = molecular target: Cyclin-dependent kinase 2 (Homo sapiens) (UniProt P24941); assay: Inhibition of wild-type human full length CDK2 (M1 to L298 residues) expressed in bacterial expression system at 1 uM by Kinomescan method relative to control
[4] = molecular target: Casein kinase I isoform alpha-like (Homo sapiens) (UniProt Q8N752); assay: Inhibition of wild-type human full length CSNK1A1L (M1 to N337 residues) expressed in bacterial expression system at 1 uM by Kinomescan method relative to control
[5] = molecular target: Epidermal growth factor receptor (Homo sapiens) (UniProt P00533); assay: Inhibition of wild-type human partial length EGFR (R669 to V1011 residues) expressed in bacterial expression system at 1 uM by Kinomescan method relative to control
[6] = molecular target: G protein-coupled receptor kinase 4 (Homo sapiens) (UniProt P32298); assay: Inhibition of wild-type human full length GRK4 (M1 to C578 residues) expressed in bacterial expression system at 1 uM by Kinomescan method relative to control
[7] = molecular target: Mast/stem cell growth factor receptor Kit (Homo sapiens) (UniProt P10721); assay: Inhibition of wild-type human partial length autoinhibited KIT (Y545 to D952 residues) expressed in mammalian expression system at 1 uM by Kinomescan method relative to control
Sequence of Mast/stem cell growth factor receptor Kit (Homo sapiens) (P10721 whole entry, the tested form may be a part): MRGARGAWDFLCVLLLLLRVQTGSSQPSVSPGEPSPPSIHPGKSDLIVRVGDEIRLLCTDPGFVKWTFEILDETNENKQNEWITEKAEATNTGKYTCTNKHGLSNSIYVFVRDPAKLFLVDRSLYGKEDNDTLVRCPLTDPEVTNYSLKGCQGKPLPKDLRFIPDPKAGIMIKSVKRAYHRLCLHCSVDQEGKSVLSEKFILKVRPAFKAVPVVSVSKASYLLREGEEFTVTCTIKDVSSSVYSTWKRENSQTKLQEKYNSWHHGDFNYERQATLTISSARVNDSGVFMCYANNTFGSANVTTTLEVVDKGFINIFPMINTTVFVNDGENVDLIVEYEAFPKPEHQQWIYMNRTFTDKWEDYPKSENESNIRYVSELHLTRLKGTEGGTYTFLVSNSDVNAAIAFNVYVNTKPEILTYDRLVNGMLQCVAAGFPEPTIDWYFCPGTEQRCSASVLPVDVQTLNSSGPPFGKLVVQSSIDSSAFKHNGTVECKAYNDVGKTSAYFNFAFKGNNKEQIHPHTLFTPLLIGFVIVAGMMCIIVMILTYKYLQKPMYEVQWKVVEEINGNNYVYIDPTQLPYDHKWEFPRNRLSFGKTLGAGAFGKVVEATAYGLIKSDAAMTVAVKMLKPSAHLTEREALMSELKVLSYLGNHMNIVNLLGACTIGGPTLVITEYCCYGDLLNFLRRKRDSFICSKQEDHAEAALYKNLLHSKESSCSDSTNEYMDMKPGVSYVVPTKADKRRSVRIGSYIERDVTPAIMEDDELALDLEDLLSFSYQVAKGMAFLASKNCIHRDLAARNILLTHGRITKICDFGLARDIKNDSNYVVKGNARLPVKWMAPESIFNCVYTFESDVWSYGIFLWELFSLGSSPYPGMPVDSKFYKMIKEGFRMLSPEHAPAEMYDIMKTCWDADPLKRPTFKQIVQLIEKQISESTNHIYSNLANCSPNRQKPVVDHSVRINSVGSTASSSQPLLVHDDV

[8] = molecular target: Dual specificity mitogen-activated protein kinase kinase 1 (Homo sapiens) (UniProt Q02750); assay: Inhibition of wild-type human full length MEK1 (M1 to V393 residues) expressed in mammalian expression system at 1 uM by Kinomescan method relative to control
[9] = molecular target: Serine/threonine-protein kinase 26 (Homo sapiens) (UniProt Q9P289); assay: Inhibition of wild-type human full length MST4 (M1 to P416 residues) expressed in mammalian expression system at 1 uM by Kinomescan method relative to control
[10] = molecular target: Serine/threonine-protein kinase Nek5 (Homo sapiens) (UniProt Q6P3R8); assay: Inhibition of wild-type human partial length NEK5 (M1 to M279 residues) expressed in bacterial expression system at 1 uM by Kinomescan method relative to control
[11] = molecular target: Serine/threonine-protein kinase NIM1 (Homo sapiens) (UniProt Q8IY84); assay: Inhibition of wild-type human partial length NIM1 (Q44 to N355 residues) expressed in mammalian expression system at 1 uM by Kinomescan method relative to control
[12] = molecular target: Serine/threonine-protein kinase PAK 1 (Homo sapiens) (UniProt Q13153); assay: Inhibition of wild-type human partial length PAK1 (S149 to H545 residues) expressed in bacterial expression system at 1 uM by Kinomescan method relative to control
Sequence of Serine/threonine-protein kinase PAK 1 (Homo sapiens) (Q13153 whole entry, the tested form may be a part, canonical isoform): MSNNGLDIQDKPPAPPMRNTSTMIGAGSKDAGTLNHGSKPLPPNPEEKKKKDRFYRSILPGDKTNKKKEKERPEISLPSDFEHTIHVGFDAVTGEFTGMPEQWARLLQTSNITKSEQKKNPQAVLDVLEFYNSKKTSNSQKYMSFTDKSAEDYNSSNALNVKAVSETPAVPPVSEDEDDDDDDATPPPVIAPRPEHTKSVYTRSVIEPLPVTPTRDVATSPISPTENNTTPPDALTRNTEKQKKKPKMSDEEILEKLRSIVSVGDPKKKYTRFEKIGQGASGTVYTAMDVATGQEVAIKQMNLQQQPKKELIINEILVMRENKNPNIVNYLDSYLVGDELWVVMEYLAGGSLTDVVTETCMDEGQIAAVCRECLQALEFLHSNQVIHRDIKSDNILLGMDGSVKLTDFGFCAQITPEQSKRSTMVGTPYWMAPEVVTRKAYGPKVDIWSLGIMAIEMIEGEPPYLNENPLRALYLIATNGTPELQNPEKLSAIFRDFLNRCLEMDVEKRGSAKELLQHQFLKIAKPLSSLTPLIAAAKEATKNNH

[13] = system: Phosphatidylinositol 4,5-bisphosphate 3-kinase catalytic subunit alpha isoform (Homo sapiens), P42336 [H1047Y]; assay: Inhibition of human partial length PIK3CA H1047Y mutant (R108 to N1068 residues) expressed in mammalian expression system at 1 uM by Kinomescan method relative to control
Sequence of Phosphatidylinositol 4,5-bisphosphate 3-kinase catalytic subunit alpha isoform (Homo sapiens), P42336 [H1047Y] (P42336 whole entry H1047Y, the tested form may be a part, canonical isoform): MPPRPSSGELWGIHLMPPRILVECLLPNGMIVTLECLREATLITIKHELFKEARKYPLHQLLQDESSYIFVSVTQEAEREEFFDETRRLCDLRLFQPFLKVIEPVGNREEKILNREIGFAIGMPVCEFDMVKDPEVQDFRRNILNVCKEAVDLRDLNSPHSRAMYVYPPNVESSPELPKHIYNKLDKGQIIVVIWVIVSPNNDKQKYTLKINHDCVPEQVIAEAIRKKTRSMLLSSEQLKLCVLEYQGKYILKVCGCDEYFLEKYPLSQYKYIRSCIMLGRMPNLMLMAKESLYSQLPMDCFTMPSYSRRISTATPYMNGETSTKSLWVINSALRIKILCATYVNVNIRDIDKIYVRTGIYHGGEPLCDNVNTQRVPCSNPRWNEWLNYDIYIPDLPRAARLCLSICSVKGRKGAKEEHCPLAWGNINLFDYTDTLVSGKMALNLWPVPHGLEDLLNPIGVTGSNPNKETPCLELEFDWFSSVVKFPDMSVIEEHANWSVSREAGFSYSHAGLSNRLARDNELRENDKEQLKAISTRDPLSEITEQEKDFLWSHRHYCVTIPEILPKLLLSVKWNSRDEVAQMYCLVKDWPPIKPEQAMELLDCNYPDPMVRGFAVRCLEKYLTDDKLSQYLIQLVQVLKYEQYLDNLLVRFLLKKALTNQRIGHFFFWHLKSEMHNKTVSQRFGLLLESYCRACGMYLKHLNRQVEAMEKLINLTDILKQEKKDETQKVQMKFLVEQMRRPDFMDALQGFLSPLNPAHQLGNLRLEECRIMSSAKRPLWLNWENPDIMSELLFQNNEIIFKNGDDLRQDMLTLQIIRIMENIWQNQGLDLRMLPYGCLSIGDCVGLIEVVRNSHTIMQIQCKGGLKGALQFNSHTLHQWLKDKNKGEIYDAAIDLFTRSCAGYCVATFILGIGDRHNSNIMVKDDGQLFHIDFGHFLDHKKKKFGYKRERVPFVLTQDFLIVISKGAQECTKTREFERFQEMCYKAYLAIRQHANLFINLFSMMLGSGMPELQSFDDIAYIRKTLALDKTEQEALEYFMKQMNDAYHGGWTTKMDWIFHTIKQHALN

[14] = molecular target: Serine/threonine-protein kinase pim-2 (Homo sapiens) (UniProt Q9P1W9); assay: Inhibition of wild-type human partial length PIM2 (M1 to E291 residues) expressed in bacterial expression system at 1 uM by Kinomescan method relative to control
[15] = molecular target: Serine/threonine-protein kinase TNNI3K (Homo sapiens) (UniProt Q59H18); assay: Inhibition of wild-type human full length TNNI3K (M1 to S835 residues) expressed in bacterial expression system at 1 uM by Kinomescan method relative to control
Sequence of Serine/threonine-protein kinase TNNI3K (Homo sapiens) (Q59H18 whole entry, the tested form may be a part): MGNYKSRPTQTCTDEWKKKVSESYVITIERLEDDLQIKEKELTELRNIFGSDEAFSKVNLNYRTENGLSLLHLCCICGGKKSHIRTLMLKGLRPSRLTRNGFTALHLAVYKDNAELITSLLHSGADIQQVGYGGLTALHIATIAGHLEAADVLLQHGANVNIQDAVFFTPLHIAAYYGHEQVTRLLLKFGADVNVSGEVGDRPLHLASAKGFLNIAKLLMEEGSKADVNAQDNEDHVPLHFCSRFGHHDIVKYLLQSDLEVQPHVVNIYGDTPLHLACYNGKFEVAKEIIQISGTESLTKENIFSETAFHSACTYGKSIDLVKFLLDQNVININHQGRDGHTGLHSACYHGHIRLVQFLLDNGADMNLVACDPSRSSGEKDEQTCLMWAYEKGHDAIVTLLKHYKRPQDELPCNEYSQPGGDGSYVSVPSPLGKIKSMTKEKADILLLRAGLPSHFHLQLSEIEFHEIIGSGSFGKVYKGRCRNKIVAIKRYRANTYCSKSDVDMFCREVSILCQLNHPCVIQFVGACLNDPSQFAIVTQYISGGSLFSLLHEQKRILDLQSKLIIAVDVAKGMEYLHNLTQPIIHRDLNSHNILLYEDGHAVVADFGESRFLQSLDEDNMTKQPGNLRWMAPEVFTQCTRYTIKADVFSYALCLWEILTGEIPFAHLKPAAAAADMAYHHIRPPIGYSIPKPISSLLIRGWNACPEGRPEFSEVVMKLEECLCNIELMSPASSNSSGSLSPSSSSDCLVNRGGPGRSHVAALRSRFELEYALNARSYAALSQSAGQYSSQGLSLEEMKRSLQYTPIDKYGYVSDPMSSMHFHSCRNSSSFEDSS

[16] = molecular target: Non-receptor tyrosine-protein kinase TYK2 (Homo sapiens) (UniProt P29597); assay: Inhibition of wild-type human partial length TYK2 JH1 catalytic domain (V877 to C1187 residues) expressed in mammalian expression system at 1 uM by Kinomescan method relative to control
[17] = molecular target: Serine/threonine-protein kinase ULK2 (Homo sapiens) (UniProt Q8IYT8); assay: Inhibition of wild-type human partial length ULK2 (M1 to S301 residues) expressed in mammalian expression system at 1 uM by Kinomescan method relative to control
[18] = system: Tyrosine-protein kinase ABL1 (Homo sapiens), P00519 [Q252H]; assay: Inhibition of human non-phosphorylated ABL1 Q252H mutant (S229 to K512 residues) expressed in mammalian expression system at 10 uM by Kinomescan method relative to control
[19] = molecular target: RAC-gamma serine/threonine-protein kinase (Homo sapiens) (UniProt Q9Y243); assay: Inhibition of wild-type human partial length AKT3 expressed in bacterial expression system at 10 uM by Kinomescan method relative to control
[20] = molecular target: Bone morphogenetic protein receptor type-1B (Homo sapiens) (UniProt O00238); assay: Inhibition of wild-type human partial length BMPR1B (D178 to L502 residues) expressed in mammalian expression system at 10 uM by Kinomescan method relative to control
Sequence of Bone morphogenetic protein receptor type-1B (Homo sapiens) (O00238 whole entry, the tested form may be a part): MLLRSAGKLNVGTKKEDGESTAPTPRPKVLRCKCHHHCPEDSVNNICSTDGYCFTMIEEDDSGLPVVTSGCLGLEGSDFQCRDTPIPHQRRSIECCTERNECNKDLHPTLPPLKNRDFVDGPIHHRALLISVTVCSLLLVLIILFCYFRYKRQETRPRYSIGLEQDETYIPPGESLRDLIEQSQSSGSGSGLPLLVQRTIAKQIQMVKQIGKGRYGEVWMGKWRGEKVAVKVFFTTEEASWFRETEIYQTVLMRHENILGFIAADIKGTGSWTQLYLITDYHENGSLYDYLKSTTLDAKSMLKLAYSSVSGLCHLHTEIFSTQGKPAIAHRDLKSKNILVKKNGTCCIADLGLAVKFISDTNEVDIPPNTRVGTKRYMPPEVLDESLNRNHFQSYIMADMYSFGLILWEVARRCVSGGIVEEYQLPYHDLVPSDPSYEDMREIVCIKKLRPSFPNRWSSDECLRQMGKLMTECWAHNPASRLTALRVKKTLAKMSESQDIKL

[21] = molecular target: Cyclin-G-associated kinase (Homo sapiens) (UniProt O14976); assay: Inhibition of wild-type human partial length GAK (G13 to Y338 residues) expressed in bacterial expression system at 10 uM by Kinomescan method relative to control
[22] = molecular target: Interleukin-1 receptor-associated kinase 3 (Homo sapiens) (UniProt Q9Y616); assay: Inhibition of wild-type human partial length IRAK3 (V147 to E596 residues) expressed in bacterial expression system at 10 uM by Kinomescan method relative to control
[23] = molecular target: Mitogen-activated protein kinase kinase kinase kinase 5 (Homo sapiens) (UniProt Q9Y4K4); assay: Inhibition of wild-type human partial length MAP4K5 (M1 to P297 residues) expressed in bacterial expression system at 10 uM by Kinomescan method relative to control
[24] = system: Hepatocyte growth factor receptor (Homo sapiens), P08581 [M1250T]; assay: Inhibition of human partial length MET M1250T mutant (D1010 to S1367 residues) expressed in bacterial expression system at 10 uM by Kinomescan method relative to control
[25] = molecular target: Serine/threonine-protein kinase PAK 1 (Homo sapiens) (UniProt Q13153); assay: Inhibition of wild-type human partial length PAK1 (S149 to H545 residues) expressed in bacterial expression system at 10 uM by Kinomescan method relative to control
[26] = molecular target: Membrane-associated tyrosine- and threonine-specific cdc2-inhibitory kinase (Homo sapiens) (UniProt Q99640); assay: Inhibition of wild-type human partial length PKMYT1 (A88 to G366 residues) expressed in bacterial expression system at 10 uM by Kinomescan method relative to control
Sequence of Membrane-associated tyrosine- and threonine-specific cdc2-inhibitory kinase (Homo sapiens) (Q99640 whole entry, the tested form may be a part): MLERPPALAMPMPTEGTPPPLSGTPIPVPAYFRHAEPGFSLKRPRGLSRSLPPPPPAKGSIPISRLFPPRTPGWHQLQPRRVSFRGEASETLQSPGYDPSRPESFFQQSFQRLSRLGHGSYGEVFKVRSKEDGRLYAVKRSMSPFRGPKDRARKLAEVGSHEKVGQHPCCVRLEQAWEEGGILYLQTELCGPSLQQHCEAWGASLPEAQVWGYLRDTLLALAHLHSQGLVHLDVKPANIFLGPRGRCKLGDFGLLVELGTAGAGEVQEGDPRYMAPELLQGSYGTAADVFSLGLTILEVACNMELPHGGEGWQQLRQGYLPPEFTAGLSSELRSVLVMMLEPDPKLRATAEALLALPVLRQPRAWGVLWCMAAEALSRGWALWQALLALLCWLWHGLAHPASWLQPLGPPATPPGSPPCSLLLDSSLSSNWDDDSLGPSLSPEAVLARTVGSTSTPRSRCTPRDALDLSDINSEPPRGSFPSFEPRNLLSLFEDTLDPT

[27] = molecular target: NUAK family SNF1-like kinase 2 (Homo sapiens) (UniProt Q9H093); assay: Inhibition of wild-type human partial length SNARK (P22 to A333 residues) expressed in mammalian expression system at 10 uM by Kinomescan method relative to control
Sequence of NUAK family SNF1-like kinase 2 (Homo sapiens) (Q9H093 whole entry, the tested form may be a part): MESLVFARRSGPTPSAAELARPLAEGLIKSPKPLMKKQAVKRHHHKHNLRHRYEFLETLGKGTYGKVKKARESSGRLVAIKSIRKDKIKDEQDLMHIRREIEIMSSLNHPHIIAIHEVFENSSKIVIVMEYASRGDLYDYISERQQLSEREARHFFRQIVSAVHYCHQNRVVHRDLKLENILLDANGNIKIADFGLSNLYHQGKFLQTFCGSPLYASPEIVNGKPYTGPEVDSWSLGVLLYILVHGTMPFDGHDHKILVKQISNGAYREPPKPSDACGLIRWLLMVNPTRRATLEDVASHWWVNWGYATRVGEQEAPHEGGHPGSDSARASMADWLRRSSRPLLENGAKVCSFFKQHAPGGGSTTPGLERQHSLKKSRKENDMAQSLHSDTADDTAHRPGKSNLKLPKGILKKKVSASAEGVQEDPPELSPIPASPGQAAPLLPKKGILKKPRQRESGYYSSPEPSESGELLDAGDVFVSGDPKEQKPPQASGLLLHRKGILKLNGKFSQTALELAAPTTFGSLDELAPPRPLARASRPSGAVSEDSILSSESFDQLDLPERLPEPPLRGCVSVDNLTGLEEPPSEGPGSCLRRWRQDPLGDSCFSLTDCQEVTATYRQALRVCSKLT

## O=C(Nc1cccc([C@@H]2CN(c3ncnc4[nH]ccc34)CCN2CCO)c1)Nc1c(F)cccc1N1CCCC1
[1]
  inhibition: 100%
[2]
  inhibition: 72%
[3]
  inhibition: 99%
[4]
  inhibition: 100%
[5]
  inhibition: 100%
[6]
  inhibition: 66%
[7]
  inhibition: 100%
[8]
  inhibition: 68%
[9]
  inhibition: 54%
[10]
  inhibition: 100%
[11]
  inhibition: 93%
[12]
  inhibition: 75%
[13]
  inhibition: 53%
[14]
  inhibition: 100%
[15]
  inhibition: 100%
[16]
  inhibition: 0%
[17]
  inhibition: 39%

## O=C(Nc1cccc([C@H]2CCCN(c3ncnc4[nH]ccc34)C2)c1)Nc1ccccc1N1CCCC1
[18]
  inhibition: 25%
[19]
  inhibition: 100%
[20]
  inhibition: 46%
[21]
  inhibition: 24%
[22]
  inhibition: 92%
[23]
  inhibition: 30%
[24]
  inhibition: 97%
[25]
  inhibition: 90%
[26]
  inhibition: 71%
[27]
  inhibition: 6.6%
